This is an account of results in patent publication US8057829B2, “Methods for repelling insects using sesquiterpene hydrocarbons and their derivatives” (Sterling International Inc., priority 2008, dated 2011).

Assay [1] deals with female antennae of sand fly Phlebotomus papatasi and mosquitoes Aedes aegypti, Anopheles gambiae, Anopheles stephensi. Briefly: GC-EAD responses of sand fly and three mosquitoes to synthetic mixtures. Particulars: about 100 ng of each compound, on one or more of the sand fly or the mosquitoes, FIGS. 9 and 10. The procedure:
The GC-EAD responses of female antennae of the sand fly, Phlebotomus papatasi, and three species of mosquitoes, Aedes aegypti, Anopheles gambiae, and anopheles stephensi were tested on a synthetic mixture of 1-octen-3-ol, six sesquiterpene hydrocarbons including (+)-longipinene, (−)-isolongifolene, (+)-longifolene, β-caryophyllene, isolongifolenone, and α-humulene, and several known insect repellents including ZE-nepetalactone, EZ-nepetalactone, with about 100 ng of each compound in the mixture.
The GC-EAD responses of female antennae of the sand fly, Phlebotomus papatasi, and three species mosquitoes, Aedes aegypti, Anopheles gambiae, and anopheles stephensi were tested on a synthetic mixture of 1-octen-3-ol, linalool, β-caryophyllene oxide, isocaryophyllene, β-caryophyllene, and α-humulene, and DEET, with about 100 ng of each compound in the mixture.
(§1) The following procedures were employed to test the EAD response of an insect antenna to a repellent compound. The GC-EAD technique provides an efficient tool for screening behaviorally active repellents. Several synthetic mixtures of potential insect repellent candidates, mostly sesquiterpene hydrocarbons and derivatives, were analyzed in splitless mode using a Varian CP-3800 GC equipped with a polar column (Innowax; 1.0 μm film thickness, 30 m×0.53 mm ID; J & W Scientific), and a 1:1 effluent splitter that allowed simultaneous flame ionization detection (FID) and EAD of the separated volatile compounds. Helium was used as the carrier gas, and the injector temperature was 220° C. The column temperature was 50° C. for 2 min, rising to 240° C. at 10° C./min, then held for 10 min. The outlet for the EAD was held in a humidified air stream flowing at 0.5 liter/min. over an antennal preparation. A glass capillary indifferent electrode filled with Beadle-Ephrussi Ringer, and grounded via a silver wire, was inserted into the severed insect's head with the antennae. A similar recording electrode connected to a high-impedance DC amplifier with automatic baseline drift compensation was placed in contact with the distal end of one antenna (Zhang et al., Chemoecology, 10:69-80 (2000)). The antennal signals were stored and analyzed on a PC equipped with a serial IDAC interface box and the program EAD ver. 2.5 (Syntech, Hilversum, The Netherlands). The compound 1-octen-3-ol (known attractant for many flies and mosquitoes) was included in most of the synthetic mixtures, as a positive control. The results of the experiments are shown in FIGS. 1-10 and described above.

Assay [2] has as its system housefly (Musca domestica) antenna. Briefly: GC-EAD antennal response, housefly. The note with it: female housefly antenna; synthetic mixture, about 100 ng of each compound; FIG. 3.
Source text: The sesquiterpene hydrocarbons and their derivatives disclosed herein have been identified as suitable insect repellents by testing via a gas chromatographic-electroantennographic detection (GC-EAD) method as described in Example 1 below. This method can be used to efficiently screen for potentially behaviorally active compounds, including insect repellents, attractants, deterrents, or attraction-inhibitors from complex natural sources or synthetic mixtures.
The GC-EAD responses of the female housefly antenna were tested on a synthetic mixture of 1-octen-3-ol, a known attractant used as a positive control, and representative sesquiterpene hydrocarbons and derivatives, (+)-longipinene, (−)-isolongifolene, (+)-longifolene, β-caryophyllene, α-humulene, and isolongifolenone, with about 100 ng of each compound in the mixture.
The GC-EAD responses of the male housefly antenna were tested on a synthetic mixture of 1-octen-3-ol, and two representative sesquiterpenes, β-caryophyllene and isocaryophyllene, with about 100 ng of each compound in the mixture.
as §1

Assay [3] concerns female mosquito Culex pipiens antenna. Briefly: GC-EAD antennal response, Culex pipiens. The note with it: female Culex pipiens antennae; about 100 ng of each compound; responses weak, but repeatable; FIGS. 7 and 8. The method, then: The GC-EAD responses of the female mosquito Culex pipiens antenna were tested on a synthetic mixture of 1-octen-3-ol, and two sesquiterpene hydrocarbons, β-caryophyllene and isocaryophyllene, with about 100 ng of each compound in the mixture.
The GC-EAD responses of the female mosquito Culex pipiens antenna were tested on a synthetic mixture of 1-octen-3-ol, and representative sesquiterpene hydrocarbons and derivatives including (+)-longipinene, (−)-isolongifolene, (+)-longifolene, β-caryophyllene, and isolongifolenone, with about 100 ng of each compound in the mixture.
Antennal responses were weak, but repeatable, thus are considered to be true responses.
as §1

Assay [4] deals with houseflies. Briefly: Laboratory sticky trap bioassay of spatial repellency with egg powder attractant. Particulars: egg powder plus repellent, FIG. 13. It counts as in vivo, housefly (Musca domestica). The method, then: Laboratory bioassay tests were carried out to investigate the efficacy of some of the EAD-active compounds described above to act as spatial repellents against several insects. The procedure for the bioassay tests is described in Example 2 below. Briefly stated, the bioassay included using egg powder (EP) as an attractant for flies, while the compound whose insect repellency was being tested was placed in proximity to the egg powder. In FIGS. 11-13, the bioassay was carried out on houseflies using devices known by the designation Trécé Pherocon® VI sticky traps.
The following lab bioassay tests were employed to illustrate the efficacy of the compounds to effectively act as spatial repellents for flies. Three sets of tests were conducted in a fly testing room (23° C., 70% RH, and 12/12 (L/D) light regime illuminated by fluorescent lights). Two sets of tests were carried out using Trécé Pherocon® VI traps with sticky inserts, which were set up on poles evenly spaced on a rotating table. The traps were ca. 1 m above a table surface, and ca. 1 m apart from each other. Two grams of egg powder in a white cap (4 cm in diameter, 0.5 cm in height) used as an attractant was put on the center of the sticky insert in the sticky trap. The potential repellent candidate chemicals were loaded into polyethylene bags, and were hung under the inner roof of the traps, 1-1.5 cm above the egg powder attractant. A control had the empty white cap and blank polyethylene bag, while the positive control had only the egg powder and an empty polyethylene bag. The test table was rotated 1.5 r.p.h. […] About 200-300 houseflies (2-3 days old) were released into the testing room for each test. Tests were normally run from 8:00 am to 5:00 pm, and the numbers of houseflies caught in each trap were counted after each test. The results of these tests are shown in FIGS. 11-13 and described above.

Take `CC1(C)C2=CCCC(C)(C)C23CCC1C3` (single isomer, unassigned; (-)) [(−)-isolongifolene, 2,2,7,7-tetramethyltricyclo undec-5-ene]: the figures for the GC-EAD antennal activity result in assay [1], in assay [2] and in assay [3] were “antennally active”, “active” and “active”, respectively. For the same compound, in assay [4] (egg powder alone 76 females), the “female house flies per trap” value was 39 house flies per trap. For the same compound, the “male house flies per trap” value in assay [4] (egg powder alone 95 males) came out at 30 house flies per trap.
